Several values for one entry are separate records, joined by “and”; a condition that tells them apart may be missing. Equal entries are not always repeated. Entries after “also recorded” stand apart in the source; their conditions may differ.

Data set [1] can be described thus: Ex vivo metabolite analysis (plasma and brain) in healthy male Wistar rats. More on the design: species or system rat. The protocol:
(§1) In vivo stability of analogues [^11C]1–3 and [^11C]SMW139 was assessed in healthy male Wistar rats at 15 and 45 minutes after injection of 30–40 MBq of formulated tracer. […] Results obtained in plasma correspond with previously reported stability results in rat liver microsomes. A higher level of intact tracer was found in brain (Table 3) for [^11C]1 and [^11C]SMW139 compared with [^11C]2 and [^11C]3. Despite optimisation of the extraction method, the percentage of total radioactivity that could be extracted from brain homogenates was not optimal for all four compounds (59 ± 6% for [^11C]1; 58 ± 7% for [^11C]2; 61 ± 4% for [^11C]3; 62 ± 3% for [^11C]SMW139). Therefore, based on its highest stability in plasma in vivo, [^11C]SMW139 was selected for further in vivo studies. As imaging studies were performed in female rats, plasma metabolites were also determined in two female rats, and no differences were found between plasma metabolism of [^11C]SMW139 in male and female rats (Table S1; Supplementary Information).
For each of the carbon-11 labelled benzamide analogues [^11C]1–3 and [^11C]SMW139, a biodistribution study and metabolite analysis in healthy male Wistar rats was performed, as described in detail in the Supplementary Information. Briefly, tracer distribution in blood, brain, and peripheral organs was measured at 5, 15, 30 and 45 min after intravenous injection of 13–23 MBq of formulated tracer. Metabolite analysis was performed at 15 and 45 min after intravenous injection of 30–40 MBq of formulated tracer in both blood plasma and brain. […]
(§2) Ex vivo metabolite analysis
(§3) Healthy male and female Wistar rats (254-440 g) were injected with 30-40 MBq (at start of experiment) of formulated tracer in the tail vein under isoflurane anaesthesia. Rats were sacrificed at 15 and 45 min (n = 3 per time point). Blood samples were obtained and the brain was excised. Blood samples were collected in heparin tubes (BD Vacutainer NH 119 I.U., 7 mL, BD Vacutainer Systems, Plymouth, UK) and centrifuged at 4,000 rpm for 5 min at 4 °C (Hettich Universal 32, Andreas Hettich GmbH & Co.KG, Tuttlingen, Germany). Plasma supernatant was separated from blood cells and loaded onto a tC18 Sep-Pak (Waters, Milford, MA, USA), followed by washing with 3 mL of water to obtain the polar fraction. The non-polar fraction was then eluted with 2 mL of MeOH and 1 mL of water and further analysed by HPLC. The brain was put in a falcon tube containing 4 mL MeCN/H2O (50:50 v/v) and homogenised with a disperser (IKA T18 B Ultra-Turrax, IKA®-Werke GmbH & Co.KG, Staufen, Germany) before centrifugation (5 min, 4,000 rpm, 20 °C, Hettich Universal 32). Supernatant was separated from brain precipitate and analysed by HPLC. Analytical HPLC was performed with Dionex (Sunnyvale, CA, USA) UltiMate 3000 HPLC equipment with Chromeleon software (version 6.8) on a Gemini C18 5-µm (10 x 250 mm) column (Phenomenex, Torrance, CA, USA) with gradient and a mixture of MeCN (A) and 0.1% DIPA in water (B) as eluent according to the following scheme: 0 min, […]
(§4) 0.25 mL·min-1. All separate fractions were counted for radioactivity in a Wizard Gammacounter 1470 or 2480 (Wallac/PerkinElmer, Waltham, MA, USA).

A further data set concerns the target T1, P2X7R (Homo sapiens, UniProt Q99572).
T1 construct: Snap frozen human post-mortem; tissue The Netherlands Brain Bank; host or cells: post mortem human temporal cortex (AD patients and non-neurological controls)
T1 sequence (Q99572 1-595): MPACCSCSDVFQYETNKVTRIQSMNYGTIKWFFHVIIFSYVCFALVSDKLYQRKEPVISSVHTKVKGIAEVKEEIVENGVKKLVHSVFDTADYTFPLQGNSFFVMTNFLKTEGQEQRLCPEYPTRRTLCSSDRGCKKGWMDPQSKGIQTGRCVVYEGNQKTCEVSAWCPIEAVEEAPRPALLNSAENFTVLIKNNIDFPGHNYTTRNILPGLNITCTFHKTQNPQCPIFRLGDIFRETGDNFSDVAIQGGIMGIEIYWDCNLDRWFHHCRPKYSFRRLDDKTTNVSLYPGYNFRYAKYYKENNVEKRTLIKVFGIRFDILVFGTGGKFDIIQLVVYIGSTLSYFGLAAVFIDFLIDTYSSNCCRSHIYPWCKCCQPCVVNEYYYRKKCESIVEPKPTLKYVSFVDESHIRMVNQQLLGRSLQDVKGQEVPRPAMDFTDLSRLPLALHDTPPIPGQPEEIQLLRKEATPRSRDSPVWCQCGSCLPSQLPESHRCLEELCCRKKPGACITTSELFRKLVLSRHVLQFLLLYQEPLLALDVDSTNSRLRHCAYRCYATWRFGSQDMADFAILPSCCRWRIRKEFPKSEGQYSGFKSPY
Description: In vitro autoradiography on post mortem human brain tissue (AD patients and controls). Type of data set: binding. To be noted: tracer 28 nM.

Data set [2] concerns the target T2, human P2X7 receptor (hP2X7R) (Homo sapiens, UniProt Q99572).
T2 sequence (Q99572 1-595): T1 sequence (Q99572 1-595)
Description: In vitro autoradiography on rat brain cryosections locally overexpressing hP2X7R. To be noted: tracer 28 nM.
Description: Snap frozen brain tissue was cut on a cryostat into 20 μm sections.
Stereotactic injection of viral vector
Female Wistar rats (n=7) were anaesthetised by intraperitoneal (i.p.)
injection of ketamine (75 mg·kg-1); Ketalar, Pfizer, Brussels, Belgium) and medetomidin (1 mg·kg-1;
Domitor, Pfizer) and positioned in a stereotactic head frame (Stoelting, Wood Dale, IL, USA). Right and
left striatum were injected with 4 µL of the hP2X7R vector (rAAV_3flag-hP2X7R) and of the control
vector (rAAV_3flag-eGFP), respectively, at a rate of 0.25 µL·min-1, using a 30-gauge needle connected
to a 10 µL Hamilton syringe. Coordinates used for striatal injection of the hP2X7R vector were:
anteroposterior 0 cm, lateral -0.28 cm and dorsoventral -0.64 cm relative to bregma. Coordinates
used for striatal injection of the eGFP vector were: anteroposterior 0 cm, lateral +0.28 cm and
dorsoventral -0.64 cm relative to bregma. After injection, the needle was kept in place for another 5
minutes before removing it slowly. To reverse the anaesthesia, the rats were injected intraperitoneally
with 0.5 mg·kg-1 atipamezol (Antisedan, Orion Pharma, Newburry, Berkshire, UK).
Rats were sacrificed for in
vitro autoradiography at 3 (n=2) and 12 (n=5) weeks after vector injection.
Snap frozen brains of female Wistar rats (rAAV_3flag-hP2X7R in right striatum; rAAV_3flag-eGFP in left
striatum; sacrificed 3 weeks (n = 2) or 12 weeks (n = 5) after vector injection) were cut on a Leica
CM3050 S cryostat (Leica Biosystems, Nussloch, Germany) at -19 °C in transversal sections of 20 µm,
thaw-mounted on SuperFrostTM Plus (Thermo Fisher Scientific, Waltham, MA, USA) object glasses,
dried overnight on silica at 4 °C and then stored at -20 °C until use.
Upon use, sections were thawed to room temperature for an hour
before washing the sections in 5 mM Tris-HCl buffer (pH 7.4) at room temperature (3x 5 min). Sections
were dried in a cold stream of air before incubation (30 min) with 5 mM Tris-HCl buffer (pH 7.4)
concentration. After incubation, sections were washed (3x 1.5 min) in ice-cold 5 mM Tris-HCl buffer
(pH 7.4) followed by a dip in ice-cold demineralised water. Sections were dried in a stream of air and
then exposed to a storage phosphor screen (BAS-IP SR 2040 E, GE Healthcare Europe GmbH,
Eindhoven, the Netherlands) and the screen was read out on a Typhoon FLA 7000 phosphor imager
(GE Healthcare Europe GmbH, Eindhoven, the Netherlands).
quantified using ImageQuantTL Analysis Toolbox (version 8.1, GE Healthcare). In case of the rat brain
sections, regions of interest (ROIs) were defined around the striatum. […] Results are expressed as mean intensity, or as
percentage of tracer binding, relative to total tracer binding in the contralateral striatum. Experiments
with rAAV_3flag-hP2X7R injected rat brains were performed as a duplicate of quadruplicates.
Statistical analysis of quantitative autoradiography data (unpaired t test, two-tailed) was performed

A short description of data set [3]: Plasma metabolite analysis in female rAAV-hP2X7R rats. Format: in vivo. To be noted: female rat. The protocol:
as §1, with “Information). […]” for “Information).”
as §2, §3, §4
Table S1: Metabolic profile of [11C]SMW139 in female rAAV-hP2X7R rats. […]

As for `[11CH3]Oc1ccc(Cl)c(C(=O)NCC23CC4(F)CC(F)(CC(F)(C4)C2)C3)c1` [[^11C]SMW139], the “Intact tracer (%)” value is 79 ± 1% in data set [1] (rat brain, 15 min p.i.); 66 ± 2% in data set [1] (rat brain, 45 min p.i.); 60 ± 1% in data set [1] (rat plasma, 15 min p.i., male Wistar rats); 42% and 42 ± 2% in data set [1] (rat plasma, 45 min p.i., male Wistar rats); 78% in data set [3] (Rat 1, 15 min); 50% in data set [3] (Rat 1, 45 min). Further, the “Intact tracer (%)” value in data set [3] (Rat 2, 15 min) is listed as 63%; in data set [3] (Rat 2, 45 min), 32%. Also, on P2X7R (AD patients and controls), the “Tracer binding in white matter vs grey matter” value is given as “Higher tracer binding was observed in white matter compared with grey matter; also recorded: higher in white matter than in grey matter”. Also, the “Tracer binding in AD patients vs non-neurological controls” value on P2X7R (temporal cortex, grey and white matter) was “does not differ significantly; also recorded: did not differ significantly; also recorded: no significant differences”. Moreover, in data set [2], the “Mean intensity of tracer binding in rAAV_3flag-eGFP injected striatum” value is reported as 69 ± 10 counts. Further, the “Mean intensity of tracer binding in rAAV_3flag-hP2X7R injected striatum” value in data set [2] was 678 ± 55 counts. The “Increased binding in rAAV_3flag-hP2X7R injected striatum vs rAAV_3flag-eGFP injected striatum” value in data set [2] (n = 2) was 10 ± 2 fold and 10 fold.

These data come from publication PMC5920098, “Identification of the allosteric P2X7 receptor antagonist [^11C]SMW139 as a PET tracer of microglial activation” (Scientific Reports, 2018).
